Laboratory results taken from patent US20100216779A1 (GLAXOSMITHKLINE LLC, priority 2007, published 2010).

Tests used:
Format in all cases: cell-based
[1] = test system: NCI-H929 (multiple myeloma); assay: Inhibition of cell proliferation, CellTiter-Glo, NCI-H929; details: Homo sapiens, 72 h
Method: C. Inhibition of Cell Proliferation
Cell proliferation was measured by either CellTiter-Glo (measures cellular ATP level as a surrogate for total cell number) or by InCell analyzer (counts number of nuclei as a measure of cell number). For CellTiter-Glo assay, exponentially growing cell lines of different tumor origins, cultured in appropriate media containing 10% fetal bovine serum at 37° C. in a 5% CO2 incubator, were plated at low density (less than 2000 cells/well) in 96-well plates. Twenty four hours post-plating, cells were treated with different concentrations of test compounds ranging from 30 uM to 1.5 nM. Several wells were left untreated as a control. Seventy two hours post-treatment, cell numbers were determined using 50-100 ul per well of CellTiter-Glo (Promega #G7573). Plates were incubated at 37° C. for 30 minutes and the chemiluminescent signal was read on the Victor V or Envison 2100 reader. […]

COLO205 (colon) = assay: Inhibition of cell proliferation, CellTiter-Glo, COLO205; details: Homo sapiens, COLO 205, 72 h
Method in brief: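 Exponentially growing COLO205 cells in medium with 10% FBS were plated below 2000 cells/well at 37 °C, 5% CO2. Untreated wells served as controls.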

[2] = target: T1, IR (NIH-3T3 cells over expressing human IGF-1R or IR) (Homo sapiens, UniProt P06213); assay: IR cellular autophosphorylation (DELFIA); details: NIH-3T3 cells over expressing IR, insulin stimulated
T1 construct: expressed in transfected cells; host or cells: NIH-3T3 (mouse fibroblasts)
T1 sequence (P06213 28-1382): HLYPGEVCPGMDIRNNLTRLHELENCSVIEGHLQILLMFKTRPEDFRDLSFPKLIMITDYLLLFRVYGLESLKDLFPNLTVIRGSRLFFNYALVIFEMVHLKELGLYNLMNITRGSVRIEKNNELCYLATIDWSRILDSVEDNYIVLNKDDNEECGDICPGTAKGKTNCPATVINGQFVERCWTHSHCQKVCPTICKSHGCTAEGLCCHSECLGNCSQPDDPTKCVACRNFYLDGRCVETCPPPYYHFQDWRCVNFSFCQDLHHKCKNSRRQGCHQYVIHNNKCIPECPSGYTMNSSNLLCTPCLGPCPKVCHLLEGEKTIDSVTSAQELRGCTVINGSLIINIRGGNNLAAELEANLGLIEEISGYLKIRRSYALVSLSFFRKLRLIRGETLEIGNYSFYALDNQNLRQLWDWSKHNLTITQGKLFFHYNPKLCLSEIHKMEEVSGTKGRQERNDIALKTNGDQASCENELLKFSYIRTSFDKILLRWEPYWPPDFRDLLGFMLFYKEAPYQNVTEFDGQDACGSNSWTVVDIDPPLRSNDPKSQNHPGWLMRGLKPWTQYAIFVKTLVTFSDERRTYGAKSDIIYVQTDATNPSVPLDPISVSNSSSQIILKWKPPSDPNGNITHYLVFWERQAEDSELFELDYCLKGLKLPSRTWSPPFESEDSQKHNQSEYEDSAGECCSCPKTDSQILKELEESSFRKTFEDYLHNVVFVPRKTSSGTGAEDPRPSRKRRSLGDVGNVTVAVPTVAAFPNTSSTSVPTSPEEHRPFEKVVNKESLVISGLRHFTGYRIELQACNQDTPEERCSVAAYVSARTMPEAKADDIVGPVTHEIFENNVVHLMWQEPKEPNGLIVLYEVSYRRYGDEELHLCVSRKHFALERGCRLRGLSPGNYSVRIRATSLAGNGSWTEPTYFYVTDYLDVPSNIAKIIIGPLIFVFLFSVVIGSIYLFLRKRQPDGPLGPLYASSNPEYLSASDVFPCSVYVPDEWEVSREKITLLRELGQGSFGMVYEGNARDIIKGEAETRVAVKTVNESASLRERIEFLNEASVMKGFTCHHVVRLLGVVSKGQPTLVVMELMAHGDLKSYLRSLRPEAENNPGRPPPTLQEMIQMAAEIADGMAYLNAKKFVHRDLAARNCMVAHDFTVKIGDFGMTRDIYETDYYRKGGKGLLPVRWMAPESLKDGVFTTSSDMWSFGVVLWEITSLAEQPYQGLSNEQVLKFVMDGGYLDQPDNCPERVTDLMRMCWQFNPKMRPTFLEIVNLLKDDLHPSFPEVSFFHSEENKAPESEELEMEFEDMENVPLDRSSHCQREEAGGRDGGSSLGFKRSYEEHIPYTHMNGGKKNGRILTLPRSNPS
Method in brief: (§1)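 Receptor-overexpressing NIH-3T3, 10% FBS, 37 °C; cpd 30 uM–1.5 nM × 2 h; stim IGF-1 30 ng/mL (IGF-1R) or insulin 3 ug/mL (IR), 15 min; lysate DELFIA, Eu anti-pTyr; % of stimulated signal.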

[3] = target: T2, human IGF-1R (NIH-3T3 cells over expressing human IGF-1R) (Homo sapiens, UniProt P08069); assay: IGF-1R cellular autophosphorylation (DELFIA); details: IGF-1 stimulated
T2 construct: expressed in transfected cells; host or cells: NIH-3T3 (mouse fibroblasts)
T2 sequence (P08069 31-1367): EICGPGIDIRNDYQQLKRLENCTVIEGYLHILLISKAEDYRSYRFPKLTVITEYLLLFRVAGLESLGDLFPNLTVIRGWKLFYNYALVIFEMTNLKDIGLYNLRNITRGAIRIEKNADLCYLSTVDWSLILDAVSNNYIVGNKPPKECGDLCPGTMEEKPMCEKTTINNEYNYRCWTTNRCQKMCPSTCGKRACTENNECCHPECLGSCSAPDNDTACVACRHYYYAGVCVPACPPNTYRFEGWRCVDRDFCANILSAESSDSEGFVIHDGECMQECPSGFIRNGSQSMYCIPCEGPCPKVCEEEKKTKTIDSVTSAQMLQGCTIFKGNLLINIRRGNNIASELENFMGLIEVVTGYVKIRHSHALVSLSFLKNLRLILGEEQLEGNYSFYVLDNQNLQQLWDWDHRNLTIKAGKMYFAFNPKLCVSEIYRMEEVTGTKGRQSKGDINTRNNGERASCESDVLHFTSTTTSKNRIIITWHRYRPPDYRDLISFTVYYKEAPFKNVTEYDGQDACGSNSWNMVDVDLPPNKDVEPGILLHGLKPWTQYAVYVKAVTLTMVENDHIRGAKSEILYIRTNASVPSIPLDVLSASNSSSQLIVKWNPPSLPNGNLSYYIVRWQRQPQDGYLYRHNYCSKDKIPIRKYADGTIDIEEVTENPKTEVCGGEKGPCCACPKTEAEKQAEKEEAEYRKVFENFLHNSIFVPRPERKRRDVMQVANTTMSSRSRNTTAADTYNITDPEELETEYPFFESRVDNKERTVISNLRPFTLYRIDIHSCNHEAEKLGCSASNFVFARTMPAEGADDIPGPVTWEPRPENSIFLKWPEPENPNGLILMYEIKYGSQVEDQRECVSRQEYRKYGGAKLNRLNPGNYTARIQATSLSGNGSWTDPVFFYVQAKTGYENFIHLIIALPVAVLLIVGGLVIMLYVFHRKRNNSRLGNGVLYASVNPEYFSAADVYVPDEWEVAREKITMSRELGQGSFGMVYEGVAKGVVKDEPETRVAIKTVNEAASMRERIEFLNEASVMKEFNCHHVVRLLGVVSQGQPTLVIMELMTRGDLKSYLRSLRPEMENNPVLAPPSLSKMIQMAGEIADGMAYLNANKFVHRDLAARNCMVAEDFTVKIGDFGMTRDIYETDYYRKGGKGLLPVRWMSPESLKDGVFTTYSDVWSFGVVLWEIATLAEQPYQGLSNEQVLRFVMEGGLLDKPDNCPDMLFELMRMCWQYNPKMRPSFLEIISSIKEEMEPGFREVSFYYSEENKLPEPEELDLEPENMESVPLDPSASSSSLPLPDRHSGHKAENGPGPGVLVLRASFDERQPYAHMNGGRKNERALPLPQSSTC
Method in brief: as §1

| Compound | IC50 [1] [nM] | IC50 (COLO205 (colon)) [nM] | IC50 [2] [nM] | IC50 [3] [nM] |
| --- | --- | --- | --- | --- |
| CCOc1cc(C2CCN(CCS(C)(=O)=O)CC2)ccc1Nc1nccc(-c2c(-c3ccc(OC)c(C(=O)Nc4c(F)cccc4F)c3)nc3ccccn23)n1 [Example 184, N-(2,6-difluorophenyl)-5-(3-{2-[(2-(ethyloxy)-4-{1-[2-(methylsulfonyl)ethyl]-4-piperidinyl}-phenyl)amino]-4-pyrimidinyl}imidazo[1,2-a]pyridin-2-yl)-2-(methyloxy)benzamide] | < 250 | < 250 | – | – |
| COc1cc(N2CCC(N3CCN(CCS(C)(=O)=O)CC3)CC2)c(C)cc1Nc1nccc(-c2c(-c3cccc(C(=O)Nc4c(F)cccc4F)c3)nc3ccccn23)n1 [Example 115, N-(2,6-difluorophenyl)-3-[3-(2-{[5-methyl-2-(methyloxy)-4-(4-{4-[2-(methylsulfonyl)ethyl]-1-piperazinyl}-1-piperidinyl)phenyl]amino]-4-pyrimidinyl)imidazo[1,2-a]pyridin-2-yl]benzamide] | < 250 | 250 to 1000 | – | – |
| COc1cc(C2CCN(CCS(C)(=O)=O)CC2)ccc1Nc1nccc(-c2c(-c3ccc(OC)c(C(=O)Nc4c(F)cccc4F)c3)nc3ccccn23)n1 [Example 181, N-(2,6-difluorophenyl)-2-(methyloxy)-5-(3-{2-[(2-(methyloxy)-4-{1-[2-(methylsulfonyl)ethyl]-4-piperidinyl}phenyl)amino]-4-pyrimidinyl}imidazo[1,2-a]pyridin-2-yl)benzamide] | < 250 | 250 to 1000 | – | – |
| COc1cc(CCCN2CCN(C)CC2)ccc1Nc1nccc(-c2c(-c3cccc(C(=O)Nc4c(F)cccc4F)c3)nc3ccccn23)n1 [Example 141, N-(2,6-difluorophenyl)-3-{3-[2-({2-(methyloxy)-4-[3-(4-methyl-1-piperazinyl)propyl]phenyl}amino)-4-pyrimidinyl]imidazo[1,2-a]pyridin-2-yl}benzamide] | – | 250 to 1000 | 100 to 500 | 100 to 500 |
| COc1cc(-c2nnc(CN(C)C)o2)ccc1Nc1nccc(-c2c(-c3ccc(OC)c(C(=O)Nc4c(F)cccc4F)c3)nc3ccccn23)n1 [Example 26, N-(2,6-difluorophenyl)-5-[3-(2-{[4-{5-[(dimethylamino)methyl]-1,3,4-oxadiazol-2-yl}-2-(methyloxy)phenyl]amino}-4-pyrimidinyl)imidazo[1,2-a]pyridin-2-yl]-2-(methyloxy)benzamide] | – | 250 to 1000 | > 500 | < 100 |
| COc1cc(N2CCC(N3CCCCC3)CC2)ccc1Nc1nccc(-c2c(-c3ccc(OC)c(C(=O)Nc4c(F)cccc4F)c3)nc3ccccn23)n1 [Example 23, 5-[3-(2-{[4-(1,4′-bipiperidin-1-yl)-2-(methyloxy)phenyl]amino}-4-pyrimidinyl)imidazo[1,2-a]pyridin-2-yl]-N-(2,6-difluorophenyl)-2-(methyloxy)benzamide] | – | < 250 | < 100 | < 100 |
| COc1cc(N2CCN(CCS(C)(=O)=O)CC2)ccc1Nc1nccc(-c2c(-c3ccc(OC)c(C(=O)Nc4c(F)cccc4F)c3)nc3ccccn23)n1 [Example 135, N-(2,6-difluorophenyl)-2-(methyloxy)-5-(3-{2-[(2-(methyloxy)-4-{4-[2-(methylsulfonyl)ethyl]-1-piperazinyl}phenyl)amino]-4-pyrimidinyl}imidazo[1,2-a]pyridin-2-yl)benzamide] | – | 250 to 1000 | < 100 | < 100 |
| CCOc1ccc(-c2nc3ccccn3c2-c2ccnc(Nc3ccc(C4CCN(CCS(C)(=O)=O)CC4)cc3OC)n2)cc1C(=O)Nc1c(F)cccc1F [Example 182, N-(2,6-difluorophenyl)-2-(ethyloxy)-5-(3-{2-[(2-(methyloxy)-4-{1-[2-(methylsulfonyl)ethyl]-4-piperidinyl}phenyl)amino]-4-pyrimidinyl}imidazo[1,2-a]pyridin-2-yl)benzamide] | < 250 | < 250 | – | – |
| CCOc1cc(N2CCC(N3CCCCC3)CC2)ccc1Nc1nccc(-c2c(-c3cccc(C(=O)Nc4c(F)cccc4F)c3)nc3ccccn23)n1 [Example 34, 3-[3-(2-{[4-(1,4′-bipiperidin-1′-yl)-2-(ethyloxy)phenyl]amino}-4-pyrimidinyl)imidazo[1,2-a]pyridin-2-yl]-N-(2,6-difluorophenyl)benzamide] | – | 250 to 1000 | 100 to 500 | < 100 |
| COc1cc(N2CCC(N3CCCCC3)CC2)ccc1Nc1nccc(-c2c(-c3cccc(C(=O)Nc4ccc(F)cc4Cl)c3)nc3ccccn23)n1 [Example 44, 3-[3-(2-{[4-(1,4′-bipiperidin-1′-yl)-2-(methyloxy)phenyl]amino}-4-pyrimidinyl)imidazo[1,2-a]pyridin-2-yl]-N-(2-chloro-4-fluorophenyl)benzamide] | – | 250 to 1000 | 100 to 500 | < 100 |

Continued, values first:

| IC50 [1] [nM] | IC50 (COLO205 (colon)) [nM] | IC50 [2] [nM] | IC50 [3] [nM] | Compound |
| --- | --- | --- | --- | --- |
| < 250 | 250 to 1000 | – | – | COc1cc(N2CCC(CCS(C)(=O)=O)CC2)ccc1Nc1nccc(-c2c(-c3ccc(OC)c(C(=O)Nc4c(F)cccc4F)c3)nc3cc(F)ccn23)n1 [Example 216, N-(2,6-difluorophenyl)-5-(7-fluoro-3-{2-[(2-(methyloxy)-4-{4-[2-(methylsulfonyl)ethyl]-1-piperidinyl}phenyl)amino]-4-pyrimidinyl}imidazo[1,2-a]pyridin-2-yl)-2-(methyloxy)benzamide] |
| < 250 | < 250 | – | – | CCOc1cc(N2CCC(N3CCN(S(C)(=O)=O)CC3)CC2)c(CC)cc1Nc1nccc(-c2c(-c3ccc(OCC)c(C(=O)Nc4c(F)cccc4F)c3)nc3ccccn23)n1 [Example 205, N-(2,6-difluorophenyl)-5-(3-{2-[(5-ethyl-2-(ethyloxy)-4-{4-[4-(methylsulfonyl)-1-piperazinyl]-1-piperidinyl}phenyl)amino]-4-pyrimidinyl}imidazo[1,2-a]pyridin-2-yl)-2-(ethyloxy)benzamide] |
| < 250 | < 250 | – | – | CCOc1cc(N2CCN(CCS(C)(=O)=O)CC2)c(C)cc1Nc1nccc(-c2c(-c3ccc(OC)c(C(=O)Nc4c(F)cccc4F)c3)nc3ccccn23)n1 [Example 247, N-(2,6-difluorophenyl)-5-(3-{2-[(2-(ethyloxy)-5-methyl-4-[4-[2-(methylsulfonyl)ethyl]-1-piperazinyl}phenyl)amino]-4-pyrimidinyl}imidazo[1,2-a]pyridin-2-yl)-2-(methyloxy)benzamide] |
| < 250 | 250 to 1000 | – | – | COc1cc(N2CCC(CCS(C)(=O)=O)CC2)c(C)cc1Nc1nccc(-c2c(-c3ccc(OC)c(C(=O)Nc4c(F)cccc4F)c3)nc3cc(F)ccn23)n1 [Example 220, N-(2,6-difluorophenyl)-5-(7-fluoro-3-{2-[(5-methyl-2-(methyloxy)-4-{4-[2-(methylsulfonyl)ethyl]-1-piperidinyl}phenyl)amino]-4-pyrimidinyl}imidazo[1,2-a]pyridin-2-yl)-2-(methyloxy)benzamide] |
| < 250 | 250 to 1000 | – | – | CCOc1cc(N2CCC(CCS(C)(=O)=O)CC2)c(C)cc1Nc1nccc(-c2c(-c3ccc(OC)c(C(=O)Nc4c(F)cccc4F)c3)nc3cc(F)ccn23)n1 [Example 218, N-(2,6-difluorophenyl)-5-(3-{2-[(2-(ethyloxy)-5-methyl-4-{4-[2-(methylsulfonyl)ethyl]-1-piperidinyl}phenyl)amino]-4-pyrimidinyl}-7-fluoroimidazo[1,2-a]pyridin-2-yl)-2-(methyloxy)benzamide] |
| > 1000 | > 1000 | – | – | COc1cc(N2CCC(N3CCCCC3)CC2)ccc1Nc1nccc(-c2c(-c3cccc(C(=O)Nc4c(F)cccc4F)c3)nc3cc(C(F)(F)F)ccn23)n1 [Example 191, 3-[3-(2-{[4-(1,4′-bipiperidin-1′-yl)-2-(methyloxy)phenyl]amino}-4-pyrimidinyl)-7-(trifluoromethyl)imidazo[1,2-a]pyridin-2-yl]-N-(2,6-difluorophenyl)benzamide] |
| < 250 | < 250 | – | – | CCOc1cc(N2CCN(CCS(C)(=O)=O)CC2)c(C)cc1Nc1nccc(-c2c(-c3ccc(OC(C)C)c(C(=O)Nc4c(F)cccc4F)c3)nc3ccccn23)n1 [Example 249, N-(2,6-difluorophenyl)-5-(3-{2-[(2-(ethyloxy)-5-methyl-4-{4-[2-(methylsulfonyl)ethyl]-1-piperazinyl}phenyl)amino]-4-pyrimidinyl}imidazo[1,2-a]pyridin-2-yl)-2-[(1-methylethyl)oxy]benzamide] |
| < 250 | < 250 | – | – | CCOc1cc(C2CCN(CCS(C)(=O)=O)CC2)ccc1Nc1nccc(-c2c(-c3ccc(OC(C)C)c(C(=O)Nc4c(F)cccc4F)c3)nc3ccccn23)n1 [Example 186, N-(2,6-difluorophenyl)-5-(3-{2-[(2-(ethyloxy)-4-{1-[2-(methylsulfonyl)ethyl]-4-piperidinyl}phenyl)amino]-4-pyrimidinyl}imidazo[1,2-a]pyridin-2-yl)-2-[(1-methylethyl)oxy]benzamide] |
